In patent US6664271B1, “Immunopotentiator agents” (Eli Lilly and Company, priority 1999, dated 2003):
Marks after values point to notes of the source that are not given here.

Columns and labels:
chicken leukocytes = experiment: cells; format: cell-based; conditions: for minimal effective concentration: Gallus gallus, Leukocyte, read-out: MSC (Minimum Stimulatory Concentration)
Procedure: Various compounds of Formula I were evaluated for in vitro T-lymphocyte blastogenic activity with chicken leukocytes according to the steps described in the following procedure:
(a) Exsanguination step. The leukocytes were obtained from 3-6 week old Hubbard/Peterson broiler chickens. Initially, the chickens were rendered unconscious in a CO2 chamber. The chickens were then exsanguinated via cardiac puncture. In the exsanguination procedure, a syringe was connected to a needle, and the needle was inserted into the area at the base of the neck under the “V” formed by the breast and sternum. After the needle was properly inserted, continuous vacuum was applied to a syringe (connected to the needle) by pulling back on the plunger. It is important to promptly carry out this withdrawal action, because there is only a 10-15 seconds time period after the blood has starting flowing into the syringe before the blood coagulates, and becomes unusable. As soon as the syringe is full (or prior to complete filling if too much time has elapsed such that the blood begins to coagulate), the whole uncoagulated blood is transferred to a tube having the anticoagulant EDTA therein. The tube is then rotated to mix the whole blood and the EDTA. Alternatively, the whole blood can be withdrawn directly into a vacuum container already having EDTA therein, rather than into a syringe.
(b) Leukocyte isolation step. Numerous methods for isolating leukocytes from (uncoagulated) whole blood are known in the art. In a preferred method, the sterile whole blood was combined with methylcellulose (1.5:1). Any blood containing clots was discarded. The mixture was centrifuged at 30×g for ten minutes (300 rpm on Beckman GS-6R centrifuge). The top layer (leukocytes in supernatant) was decanted into a sterile 50 ml conical tube, while taking care to prevent contamination of the sample by red blood cells. The decanted layer was then centrifuged at 200×g for ten minutes (1500 rpm on the Beckman GS-6R centrifuge). The supernatant liquid was discarded, and the resulting cell “pellet” was retained.
The cells were then washed in a solution containing 10 ml PBS (phosphate buffered saline) and Gentamycin (gentamicin sulfate) at a concentration of 50 μg/ml. This solution was centrifuged at 100×g (1000 rpm on the Beckman centrifuge) for five minutes, and the supernatant liquid was discarded. The washing step (including the centrifuging at 100×g) was repeated to ensure complete removal of the methylcellulose. The use of media such as DMEM ([…]) was avoided in the washing steps, since such media may cause agglutination of the white blood cells. Finally, the cells were then suspended in an appropriate media, such as RPMI 1640 tissue cell culture medium, supplemented with phenol red, NaHCO3, and L-Glutamide. Supplemented RPMI 1640 is available from Sigma-Aldrich Chemical Co.
(c) Cell counting and cell viability step. The cells were counted and checked for viability using the Trypan Blue method of exclusion. 0.1 ml of the cell suspension was placed in a 4-5 ml small culture tube along with 0.7 ml HBSS (Hank's Buffered Saline Solution), available from Sigma-Aldrich, and 0.2 ml of a 0.4% solution of aqueous Trypan Blue stain, available from GIBCO BRL, of Grand Island, N.Y. The components were mixed thoroughly but gently, and allowed to sit for 5 minutes (no longer than 15 minutes). The components should not be exposed to the stain for extended periods of time, because such extended exposure may permit viable cells, as well as non-viable cells, to take up dye.
A cover slip was placed on a Bright Line hemacytometer, available from Howser Scientific, and 10 μl of the mixture from the tube was transferred to each chamber. Non-viable cells appear blue under a microscope. The viable cells in one of the 16-square corners of the hemacytometer were then counted. […]

E. coli 19B = experiment: bacterial clearance of E. coli from peripheral blood of neonatal chicks (Example 77); format: in vivo, chick; conditions: single subcutaneous injection of 25 μg, E. coli challenge, blood 14-18 hours post-challenge
Procedure: The compounds of Example 15 ((S)-ethyl 1-benzoyl-3-piperidinecarboxylate), Example 29 (1-benzoyl-3-butyrylpiperidine), Example 30 ((S)-ethyl 1-(2-thiopheneacetyl)-3-piperidinecarboxylate) and Example 68 ((S)-ethyl 1-benzyl-3-piperidinecarboxylate 1-methiodide), respectively, were tested to determine whether a single subcutaneous injection enhanced the bacterial clearance of E. coli from the peripheral blood of neonatal chicks. Bacterial clearance is a measurement of cell-mediated immunity, specifically, phagocyte function, in animals. An approved Animal Care and Use Committee protocol governed the activity in this experiment.
1 ml syringes with 21 g 1″ needles (Becton Dickinson and Company Franklin Lakes, N.J. 07417-1884); 1 ml syringe with 25 g ⅝″ needles (Becton Dickinson and Company Franklin Lakes, N.J. 07417-1884); EMB agar plates (Difco Laboratories, Becton Dickinson Microbiology Systems, Sparks, Md. 21152); Culture tubes (14 ml polystyrene round bottom, Becton Dickinson Labware, Franklin Lakes, N.J. 07417-1886); Dulbecco's Phosphate Buffered Saline w/o Mg^++ or Ca^++ (Gibco BRL, Life Technologies Rockville, Md. 20850). Peterson x Hubbard male chicks (day of hatch from a commercial hatchery) were utilized
160 chicks were divided into 6 groups: Group 1=Controls (acetate-buffered saline vehicle); Group 2=Compound of Example 15 ((S)-ethyl 1-benzoyl-3-piperidinecarboxylate); Group 3=Compound of Example 29 (1-benzoyl-3-butyrylpiperidine); Group 4=Compound of Example 30 ((S)-ethyl 1-(2-thiopheneacetyl)-3-piperidinecarboxylate); Group 5=Compound of Example 68 ((S)-ethyl 1-benzyl-3-piperidinecarboxylate 1-methiodide); and Group 6=environmental controls. Groups 1-5 contained 3 replicates of 10 chicks each and Group 6 contained 1 replicate of 10 chicks.
Day −2 Upon arrival, day of hatch chicks were randomized (10/group), and placed in a Petersime heated brooder battery unit (Petersime Incubator Company, Gettysburg, Ohio 45328). […] All chicks were given ad libitum access to a commercially available starter feed and water.
Day 0 11:00 AM. Five to ten colonies of E. coli 19B were selected from a fresh overnight blood agar plate (TSA II with 5% sheep blood, Becton Dickinson Microbiology Systems Cockeysville, Md. 21030) and placed into 100 ml Brain Heart Infusion broth (Difco Laboratories, Becton Dickinson Microbiology Systems Sparks, Md. 21152) in a flask. […]
Day 5 EMB plates were removed from the incubator and bacterial colonies were counted and recorded to calculate CFU/ml/chick.
Data was transformed to logio values, and analysis of variance was used to determine significant differences between the treatment groups and controls. Data was expressed as the percentage of enhancedbacterial clearance compared to E. coli-challenged controls. […]

E. coli = experiment: colibacillosis infection model in broiler chickens, Trial A (Example 78); format: in vivo, chicken; conditions: 2 μg/chick subcutaneous
[1] = chicken leukocytes, read at 72 hours
[2] = Hubbard/Peterson broiler, chicken, 72 h

Compound | minimal effective concentration (chicken leukocytes; [1]) | MTC (Maximum Tolerable Concentration prior to causing cytotoxicity) (chicken leukocytes; [2]) | also measured
CCOC(=O)[C@H]1CCCN(C(=O)c2ccccc2)C1 [Example 15, (S)-Ethyl 1-Benzoyl-3-piperidinecarboxylate] | 0.1 µg/mL | 10 µg/mL | % Enhanced Clearance Compared to Controls (E. coli 19B): 34* %
CCOC(=O)C1CN(C(=O)NC)CCC1=O (centres unmarked) [Example 11, Ethyl 1-(N-Methylaminocarbonyl)-4-oxo-3-piperidinecarboxylate] | 0.001 µg/mL | 1 µg/mL | % Colibacillosis-associated Mortality (E. coli): 14.0%; % Total Mortality (E. coli): 16.5* %; Average Weight Gain/Bird (E. coli): 1.40 lb (635 g); Feed/Gain (E. coli): 1.35
CCCC(=O)C1CCCN(C(=O)c2ccccc2)C1 (centres unmarked) [Example 29, 1-Benzoyl-3-butyrylpiperidine] | 1 µg/mL | 10 µg/mL | % Enhanced Clearance Compared to Controls (E. coli 19B): 33* %
COC(=O)C1CN(C(=O)OCc2ccccc2)CCC1=O (centres unmarked) [Example 38, Methyl 1-Benzyloxycarbonyl-4-oxo-3-piperidinecarboxylate] | 1 µg/mL | 1 µg/mL | 
CCNC(=O)C1CCCN(C(=O)Cc2cccs2)C1 (centres unmarked) [Example 20, N-Ethyl 1-(2-Thiopheneacetyl)-3-piperidinecarboxamide] | 0.1 µg/mL | 1 µg/mL | 
CCOC(=O)C1CN(C(=O)OCc2ccccc2)CCC1=O (centres unmarked) [Example 10, Ethyl 1-Benzyloxycarbonyl-4-oxo-3-piperidinecarboxylate] | 0.01 µg/mL | 0.1 µg/mL | 
CCOC(=O)C1CCCN(C(=O)Cc2ccccc2)C1 (centres unmarked) [Example 6, Ethyl 1-Phenylacetyl-3-piperidinecarboxylate] |  |  | MSC (Minimum Stimulatory Concentration) (chicken leukocytes; [1]): 0.1 µg/mL; MTC (Maximum Tolerable Concentration prior to causing cytotoxicity) (chicken leukocytes; [1]): 1 µg/mL
O=C(O)[C@H]1CCCN(C(=O)c2ccccc2)C1 [Example 50, (S)-1-Benzoyl-3-piperidinecarboxylic Acid] | 1 µg/mL | 10 µg/mL | 
CCOC(=O)C1(C)CCCN(C(=O)c2ccccc2)C1 (centres unmarked) [Example 39, Ethyl 1-Benzoyl-3-methyl-3-piperidinecarboxylate] | 1 µg/mL | 1 µg/mL | 
CCOC(=O)C1CCCN(C(=O)Cc2cccs2)C1 (centres unmarked) [Example 9, Ethyl 1-(2-thiopheneacetyl)-3-piperidinecarboxylate] | 0.01 µg/mL | 1 µg/mL | 
N#C[C@H]1CCCN(C(=O)Cc2cccs2)C1 [Example 64, (S)-1-(2-Thiopheneacetyl)-3-piperidinonitrile] | 1 µg/mL | 10 µg/mL | 
CN(C)CCNC(=O)C1CCCN(C(=O)Cc2cccs2)C1 (centres unmarked) [Example 25, 2-Dimethylaminoethyl 1-(2-thiopheneacetyl)-3-piperidinecarboxamide] | 0.1 µg/mL | 1 µg/mL | 
CCOC(=O)C1CCC[N@+](C)(Cc2ccccc2)C1.[I-] (stereo partly drawn) [Example 68, (S)-Ethyl 1-Benzyl-3-piperidinecarboxylate 1-methiodide] |  |  | MSC (Minimum Stimulatory Concentration) (chicken leukocytes; [1]): 1 µg/mL; % Enhanced Clearance Compared to Controls (E. coli 19B): 50* %
(S)-Ethyl 1-(2-Thiazyl)-3-piperidinecarboxylate 1-methiodide [Example 73] |  |  | MSC (Minimum Stimulatory Concentration) (chicken leukocytes; [1]): 1 µg/mL
CCOC(=O)C1CN(C(=O)Cc2cccs2)CCC1C (centres unmarked) [Example 62, Ethyl 1-(2-Thiopheneacetyl)4-methyl-3-piperidinecarboxylate] | 1 µg/mL | 10 µg/mL | 
